Laboratory results taken from PubChem BioAssay (NCI).
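Dose response: 5 concentrations. Exposure: 48 h. Format: 96-well plates. Endpoint: linear interpolation; highest concentration if not reached. At the TGI there is no net growth.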

Legend:
Test in all cases: growth of human tumour cells (NCI), 48 h
SK-MEL-2 melanoma = system: SK-MEL-2 melanoma
HT29 colon = system: HT29 colon
M19-MEL melanoma = system: M19-MEL melanoma
SK-OV-3 ovarian = system: SK-OV-3 ovarian
U251 CNS = system: U251 CNS
SN12C renal = system: SN12C renal
SF-539 CNS = system: SF-539 CNS
A549 NSCLC = system: A549 NSCLC
ACHN renal = system: ACHN renal
SNB-75 CNS = system: SNB-75 CNS
RPMI-8226 leukemia = system: RPMI-8226 leukemia
OVCAR-5 ovarian = system: OVCAR-5 ovarian
HL-60(TB) leukemia = system: HL-60(TB) leukemia
HOP-18 NSCLC = system: HOP-18 NSCLC
LXFL 529 NSCLC = system: LXFL 529 NSCLC
KM20L2 colon = system: KM20L2 colon
K-562 leukemia = system: K-562 leukemia
SK-MEL-5 melanoma = system: SK-MEL-5 melanoma
OVCAR-4 ovarian = system: OVCAR-4 ovarian
M14 melanoma = system: M14 melanoma
A498 renal = system: A498 renal
NCI-H460 lung = system: NCI-H460 lung
HOP-92 NSCLC = system: HOP-92 NSCLC
HCT-15 colon = system: HCT-15 colon
SW-620 colon = system: SW-620 colon
DMS 273 small cell lung = system: DMS 273 small cell lung
OVCAR-8 ovarian = system: OVCAR-8 ovarian
HCT-116 colon = system: HCT-116 colon
DLD-1 colon = system: DLD-1 colon
OVCAR-3 ovarian = system: OVCAR-3 ovarian
CAKI-1 renal = system: CAKI-1 renal
SR leukemia = system: SR leukemia
NCI-H522 lung = system: NCI-H522 lung
SNB-78 CNS = system: SNB-78 CNS
786-0 renal = system: 786-0 renal
MOLT-4 leukemia = system: MOLT-4 leukemia
NCI-H23 lung = system: NCI-H23 lung
RXF-631 renal = system: RXF-631 renal
EKVX NSCLC = system: EKVX NSCLC
SF-295 CNS = system: SF-295 CNS
SK-MEL-28 melanoma = system: SK-MEL-28 melanoma
NCI-H226 lung = system: NCI-H226 lung
COLO 205 colon = system: COLO 205 colon
KM12 colon = system: KM12 colon
UACC-257 melanoma = system: UACC-257 melanoma
UO-31 renal = system: UO-31 renal
SNB-19 CNS = system: SNB-19 CNS
IGROV1 ovarian = system: IGROV1 ovarian
HOP-62 NSCLC = system: HOP-62 NSCLC
MALME-3M melanoma = system: MALME-3M melanoma
SF-268 CNS = system: SF-268 CNS
RXF 393 renal = system: RXF 393 renal
TK-10 renal = system: TK-10 renal
HCC-2998 colon = system: HCC-2998 colon
LOX IMVI melanoma = system: LOX IMVI melanoma
CCRF-CEM leukemia = system: CCRF-CEM leukemia
UACC-62 melanoma = system: UACC-62 melanoma
XF 498 CNS = system: XF 498 CNS
DMS 114 small cell lung = system: DMS 114 small cell lung

SMILES: COc1ccc2c(c1)[n+]([O-])c(-c1nc3ccccc3s1)c(N)[n+]2[O-]
- TGI (SK-MEL-2 melanoma): > 100 µM
- TGI (HT29 colon): > 100 µM
- TGI (M19-MEL melanoma): > 100 µM
- TGI (SK-OV-3 ovarian): > 100 µM
- TGI (U251 CNS): > 100 µM
- TGI (SN12C renal): > 100 µM
- TGI (SF-539 CNS): > 100 µM
- TGI (A549 NSCLC): > 100 µM
- TGI (ACHN renal): > 100 µM
- TGI (SNB-75 CNS): > 100 µM
- TGI (RPMI-8226 leukemia): > 100 µM
- TGI (OVCAR-5 ovarian): > 100 µM
- TGI (HL-60(TB) leukemia): > 100 µM
- TGI (HOP-18 NSCLC): > 100 µM
- TGI (LXFL 529 NSCLC): > 100 µM
- TGI (KM20L2 colon): > 100 µM
- TGI (K-562 leukemia): > 100 µM
- TGI (SK-MEL-5 melanoma): > 100 µM
- TGI (OVCAR-4 ovarian): > 100 µM
- TGI (M14 melanoma): > 100 µM
- TGI (A498 renal): > 100 µM
- TGI (NCI-H460 lung): > 100 µM
- TGI (HOP-92 NSCLC): > 100 µM
- TGI (HCT-15 colon): > 100 µM
- TGI (SW-620 colon): > 100 µM
- TGI (DMS 273 small cell lung): > 100 µM
- TGI (OVCAR-8 ovarian): > 100 µM
- TGI (HCT-116 colon): > 100 µM
- TGI (DLD-1 colon): > 100 µM
- TGI (OVCAR-3 ovarian): > 100 µM
- TGI (CAKI-1 renal): > 100 µM
- TGI (SR leukemia): > 100 µM
- TGI (NCI-H522 lung): > 100 µM
- TGI (SNB-78 CNS): > 100 µM
- TGI (786-0 renal): > 100 µM
- TGI (MOLT-4 leukemia): > 100 µM
- TGI (NCI-H23 lung): > 100 µM
- TGI (RXF-631 renal): > 100 µM
- TGI (EKVX NSCLC): > 100 µM
- TGI (SF-295 CNS): > 100 µM
- TGI (SK-MEL-28 melanoma): > 100 µM
- TGI (NCI-H226 lung): > 100 µM
- TGI (COLO 205 colon): > 100 µM
- TGI (KM12 colon): > 100 µM
- TGI (UACC-257 melanoma): > 100 µM
- TGI (UO-31 renal): > 100 µM
- TGI (SNB-19 CNS): > 100 µM
- TGI (IGROV1 ovarian): > 100 µM
- TGI (HOP-62 NSCLC): > 100 µM
- TGI (MALME-3M melanoma): > 100 µM

SMILES: CCN(CC)c1ccc2c(c1)N=C1N=CC=CN1C2(c1ccc(N(C)C)cc1)c1ccc(N(C)C)cc1
- TGI (SK-MEL-2 melanoma): 31.1 µM
- TGI (HT29 colon): 10.6 µM
- TGI (M19-MEL melanoma): 19.3 µM
- TGI (SK-OV-3 ovarian): 19.1 µM
- TGI (U251 CNS): 16 µM
- TGI (SN12C renal): 19.3 µM
- TGI (SF-268 CNS): 27.3 µM
- TGI (RXF 393 renal): 23.2 µM
- TGI (SF-539 CNS): 28.6 µM
- TGI (A549 NSCLC): 28 µM
- TGI (ACHN renal): 16.1 µM
- TGI (TK-10 renal): 28.6 µM
- TGI (SNB-75 CNS): 24.4 µM
- TGI (RPMI-8226 leukemia): 8.1 µM
- TGI (OVCAR-5 ovarian): 27.4 µM
- TGI (HL-60(TB) leukemia): 3.3 µM
- TGI (HCC-2998 colon): 13.2 µM
- TGI (HOP-18 NSCLC): 12 µM
- TGI (LXFL 529 NSCLC): 12.3 µM
- TGI (KM20L2 colon): 10.2 µM
- TGI (K-562 leukemia): 5.96 µM
- TGI (SK-MEL-5 melanoma): 26.7 µM
- TGI (M14 melanoma): 10.5 µM
- TGI (A498 renal): 33.3 µM
- TGI (NCI-H460 lung): 22.2 µM
- TGI (HOP-92 NSCLC): 8.6 µM
- TGI (LOX IMVI melanoma): 18.4 µM
- TGI (HCT-15 colon): 28.1 µM
- TGI (CCRF-CEM leukemia): 23.5 µM
- TGI (DMS 273 small cell lung): > 100 µM
- TGI (OVCAR-8 ovarian): 17.5 µM
- TGI (HCT-116 colon): 11.8 µM
- TGI (DLD-1 colon): 17.9 µM
- TGI (OVCAR-3 ovarian): 6.54 µM
- TGI (CAKI-1 renal): 25.2 µM
- TGI (SR leukemia): 12.9 µM
- TGI (UACC-62 melanoma): 24.1 µM
- TGI (NCI-H522 lung): 5.12 µM
- TGI (SNB-78 CNS): 39.5 µM
- TGI (786-0 renal): 24.1 µM
- TGI (XF 498 CNS): 12.6 µM
- TGI (MOLT-4 leukemia): 6.22 µM
- TGI (NCI-H23 lung): 20.2 µM
- TGI (RXF-631 renal): 19.4 µM
- TGI (EKVX NSCLC): 23.8 µM
- TGI (SF-295 CNS): 15.6 µM
- TGI (SK-MEL-28 melanoma): 26 µM
- TGI (NCI-H226 lung): 27.2 µM
- TGI (COLO 205 colon): 6.53 µM
- TGI (KM12 colon): 15.6 µM
- TGI (UACC-257 melanoma): 19.5 µM
- TGI (UO-31 renal): 22 µM
- TGI (SNB-19 CNS): 24 µM
- TGI (IGROV1 ovarian): 26.9 µM
- TGI (HOP-62 NSCLC): 24.3 µM
- TGI (MALME-3M melanoma): 27.4 µM

SMILES: O=C(O)CNCc1c2ccccc2[n+]([O-])c2ccccc12
- TGI (SK-MEL-2 melanoma): > 100 µM
- TGI (HT29 colon): > 100 µM
- TGI (M19-MEL melanoma): > 100 µM
- TGI (SK-OV-3 ovarian): > 100 µM
- TGI (U251 CNS): > 100 µM
- TGI (SN12C renal): > 100 µM
- TGI (SF-268 CNS): > 100 µM
- TGI (A549 NSCLC): > 100 µM
- TGI (ACHN renal): > 100 µM
- TGI (TK-10 renal): > 100 µM
- TGI (SNB-75 CNS): > 100 µM
- TGI (RPMI-8226 leukemia): > 100 µM
- TGI (OVCAR-5 ovarian): > 100 µM
- TGI (HL-60(TB) leukemia): 91.1 µM
- TGI (HCC-2998 colon): > 100 µM
- TGI (HOP-18 NSCLC): > 100 µM
- TGI (DMS 114 small cell lung): > 100 µM
- TGI (LXFL 529 NSCLC): > 100 µM
- TGI (KM20L2 colon): > 100 µM
- TGI (K-562 leukemia): > 100 µM
- TGI (SK-MEL-5 melanoma): > 100 µM
- TGI (OVCAR-4 ovarian): > 100 µM
- TGI (M14 melanoma): > 100 µM
- TGI (A498 renal): > 100 µM
- TGI (NCI-H460 lung): > 100 µM
- TGI (HOP-92 NSCLC): 78.1 µM
- TGI (LOX IMVI melanoma): > 100 µM
- TGI (HCT-15 colon): > 100 µM
- TGI (SW-620 colon): > 100 µM
- TGI (CCRF-CEM leukemia): > 100 µM
- TGI (DMS 273 small cell lung): > 100 µM
- TGI (OVCAR-8 ovarian): > 100 µM
- TGI (HCT-116 colon): > 100 µM
- TGI (DLD-1 colon): > 100 µM
- TGI (OVCAR-3 ovarian): > 100 µM
- TGI (CAKI-1 renal): > 100 µM
- TGI (UACC-62 melanoma): > 100 µM
- TGI (NCI-H522 lung): > 100 µM
- TGI (SNB-78 CNS): > 100 µM
- TGI (786-0 renal): > 100 µM
- TGI (MOLT-4 leukemia): > 100 µM
- TGI (NCI-H23 lung): > 100 µM
- TGI (RXF-631 renal): > 100 µM
- TGI (EKVX NSCLC): > 100 µM
- TGI (SF-295 CNS): > 100 µM
- TGI (SK-MEL-28 melanoma): > 100 µM
- TGI (NCI-H226 lung): > 100 µM
- TGI (COLO 205 colon): > 100 µM
- TGI (KM12 colon): > 100 µM
- TGI (UACC-257 melanoma): > 100 µM
- TGI (UO-31 renal): 91.7 µM
- TGI (SNB-19 CNS): > 100 µM
- TGI (IGROV1 ovarian): > 100 µM
- TGI (HOP-62 NSCLC): > 100 µM
- TGI (MALME-3M melanoma): > 100 µM
